“Also recorded” adds a separate entry of the source.
How the values were obtained:
[1] = cited from earlier work
[2] = test system: skin on the back of male or female guinea pigs; assay: Dermal anesthetic activity, pin-prick method after dermal application; assay type: in vivo; settings: for onset of dermal anesthetic activity (onset time): comparison of enantiomers and racemate, in words; for dermal anesthetic effects (anesthetic score): score after 30 min application, FIG. 1, 10% solution of base in water/DMSO, maximum = 6
Description: Approximately 18-24 hours before each experiment, the skin on the back of male or female guinea pigs was shaved and depilated with a commercially available hair remover. The anesthetic action of each agent following dermal application was determined using a “pin-prick” method as described by Aberg (Acta Pharmacol Toxicol, 1972, 31: 273-286). Before and at various intervals after treatment, the area of the skin was tested for the presence or absence of a skin twitch in response to six standardized dermal probings with a pointed metal “algesimeter” at a predetermined maximum load of 10 grams. The average number of probings not producing a skin twitch response was designated as the “anesthetic score”. In this test system no response to six stimuli represents a “maximal anesthetic activity”. In the present calculations, the dermal anesthetic activity was calculated from the time of removal of the test article formulation from the skin until skin twitch responses to all but one pinprick were identified. In experiments on the dermal anesthetic activity, a single area of skin 1 inch square was marked off on the middle of the back of each animal. This area was covered by a 1 inch square, 16 layer thick gauze pad onto which was deposited 0.45 ml of a 10% solution of the test agent dissolved in a mixture of water and DMSO. The gauze pad was covered with a 1.5 inch square sheet of Saran Wrap™ which was attached to the surrounding skin with tape. The entire area was then covered by wrapping an elastic bandage around the trunk of the animal. After a predetermined duration of treatment, the coverings were removed and the skin assessed for the presence of anesthesia as described above. Dermal anesthesia tests were performed at ten-minute intervals to measure onset time and duration of dermal anesthetic activity; comparisons were made with reference compounds and vehicle. All test compounds were in the base form and dissolved in DMSO/water when tested for dermal anesthesia.

[3] = Comparison studies of dermal toxicity; assay type: in vivo; settings: in words

## c1ccc(N(CCC2CCCCN2)C2Cc3ccccc3C2)cc1 (racemic) [RS-LAC-34, 2-{2-[N-(2-indanyl)-N-phenylamino]ethyl}piperidine]
[1]; racemate, U.S. Pat. No. 6,413,987
  local anesthetic activity: active local anesthetic compound
[1]; racemic mixture, as described in U.S. Pat. No. 6,413,987
  tissue toxicity: little, if any, tissue toxicity

## c1ccc(N(CC[C@H]2CCCCN2)C2Cc3ccccc3C2)cc1 [R-LAC-34, R-2-{2-[N-(2-indanyl)-N-phenylamino]ethyl}piperidine]
[2]
  onset of dermal anesthetic activity (onset time): shorter onset of action than both the racemate and the S-isomer; also recorded: significantly shorter; also recorded: shorter onset time than the racemic mixture or the S-isomer
  dermal anesthetic effects (anesthetic score): 3.5
[3]
  dermal toxicity: low dermal toxicity

## c1ccc(N(CCC2CCCCN2)C2Cc3ccccc3C2)cc1 (stereo not shown) [S-LAC-34, reference compound]
[2]
  onset of dermal anesthetic activity (onset time): longer onset of action
  dermal anesthetic effects (anesthetic score): 2.6

— patent publication US20060079558A1, “R-isomer of 2-{2[N-(2-indanyl)-N-phenylamino]ethyl}piperidine and other dermal anesthetics” (Bridge Pharma. Inc., priority 2004, published 2006)
